This is an account of results in patent EP0205029A2, “Quinolinecarboxylic acids with an antibacterial activity” (BAYER AG, priority 1985, dated 1986).

A short description of data set [1]: local tolerability after repeated subcutaneous application. Particulars: Mäuse, subkutan, 5 Tage 2 x pro Tag, 1 bis 10 % Lösungen, 100 mg/kg bis 300 mg/kg. Format: in vivo. The procedure: (§1) Die erfindungsgemäßen Verbindungen zeigen eine ausgezeichnete lokale Verträglichkeit, z. B, nach subkutaner Applikation, im Gegensatz zu den freien Carbonsäuren. Dazu wurden Mäuse über 5 Tage 2 x pro Tag mit 1 bis 10 % Lösungen der Wirkstoffe subkutan behandelt, entsprechend einer Dosis von 100 mg/kg bis 300 mg/kg. Während der Behandlungsperiode sowie nach Absetzen der Behandlung wurden die Tiere beobachtet. Es zeigte sich, daß die Mäuse, die mit den erfindungsgemäßen Verbindungen, z. […] Somit sind die erfindungsgemäßen Verbindungen lokal deutlich besser verträglich als die entsprechenden freien Carbonsäuren und es können Lösungen im oben genannten Konzentrationsbereich bei guter lokaler Verträglichkeit mehrfach angewendet werden. In einem Mäuseprotektionsversuch (Infektion intraperitoneal, Therapie 30 Minuten nach Infektion durch subkutane Gabe) konnte gezeigt werden, daß die Substanzen nach parenteraler Applikation eine gute protektive Wirkung bei erhöhter lokaler Verträglichkeit des Esters besitzen. Die erfindungsgemäßen Verbindungen sind damit in gleicher Dosis protektiv wirksam wie die deutlich schlechter verträglichen freien Carbonsäuren.

The nature of data set [2]: mouse protection test (intraperitoneal infection, subcutaneous therapy 30 minutes after infection). Format: in vivo, Mäuse. Particulars: sc, Infektion intraperitoneal, Therapie 30 Minuten nach Infektion. On the procedure:
as §1

For `CCOC(=O)c1cn(C2CC2)c2cc(N3CCN(CC)CC3)c(F)cc2c1=O` [Beispiel 1, 1-Cyclopropyl-6-fluor-7-(4-ethyl-1-piperazinyl)-1,4-dihydro-4-oxo-chinolin-3-carbonsäureethylester], in data set [1], the “lokale Verträglichkeit (Merkmale einer lokalen Gewebeschädigung im Bereich der Injektionsstelle)” value is recorded as “keine Merkmale einer lokalen Gewebeschädigung”.

Regarding `CCN1CCN(c2cc3c(cc2F)c(=O)c(C(=O)O)cn3C2CC2)CC1` [Substanz A], in data set [2], the ED (80-100) worked out at 2.5 mg/kg.

On to `CCOC(=O)c1cn(C2CC2)c2cc(N3CCN(CC)CC3)c(F)cc2c1=O` [Substanz B], for which the ED (80-100) in data set [2] was determined as 2.5 mg/kg.
